# Reference: ChEMBL document CHEMBL4334471, “Discovery of 1,8-disubstituted-[1,2,3]triazolo[4,5-c]quinoline derivatives as a new class of Hippo signaling pathway inhibitors” (Bioorg Med Chem Lett, 2019)
# What was measured:
# [1] = system: Angiopoietin-1 receptor (Homo sapiens), Q02763 [Q939H,Q940H,Y897S]; assay: Inhibition of recombinant human TIE2 Q939H/Q940H/Y897S mutant (771 to end residues) assessed as residual activity at 10 uM using EFPIYDFLPAKKK as substrate incubated for 40 mins in presence of [gamma33P]ATP by scintillation counting based radiometry assay relative to control
# [2] = biological target: Interferon-induced, double-stranded RNA-activated protein kinase (Homo sapiens) (UniProt P19525); assay: Inhibition of recombinant human PKR (252 to end residues) assessed as residual activity at 10 uM using RSRSRSRSRSRSRSR as substrate incubated for 40 mins in presence of [gamma33P]ATP by scintillation counting based radiometry assay relative to control
# [3] = biological target: Mitogen-activated protein kinase kinase kinase 10 (Homo sapiens) (UniProt Q02779); assay: Inhibition of recombinant human MLK2 (1 to 499 residues) assessed as residual activity at 10 uM using myelin basic protein as substrate incubated for 40 mins in presence of [gamma-33ATP by scintillation counting based radiometry assay relative to control
# [4] = system: Glycogen synthase kinase-3 alpha (Homo sapiens), P49840 [UNDEFINED MUTATION]; assay: Inhibition of human GSK-3alpha S449A mutant (2 to end residues) assessed as residual activity at 10 uM using phospho GS2 peptide as substrate after 40 mins by [gamma-33ATP] radiometric assay
# [5] = biological target: Tyrosine-protein kinase Lyn (Homo sapiens) (UniProt P07948); assay: Inhibition of recombinant human Lyn assessed as residual activity at 10 uM using poly(Glu, Tyr) 4:1 as substrate after 40 mins in presence of [gamma-33ATP] by scintillation counting based radiometry assay relative to control
# [6] = biological target: Serine/threonine-protein kinase PAK 4 (Homo sapiens) (UniProt O96013); assay: Inhibition of recombinant human PAK4 (295 to end residues) assessed as residual activity at 10 uM using myelin basic protein as substrate measured after 40 mins in presence of [gamma33P]ATP by scintillation counting based radiometry assay relative to control
# [7] = biological target: Tyrosine-protein kinase HCK (Homo sapiens) (UniProt P08631); assay: Inhibition of human HCK (230 to 497 residues) assessed as residual activity at 10 uM using Cdc2 peptide as substrate after 40 mins by [gamma-33ATP] radiometric assay relative to control
# [8] = biological target: Serine/threonine-protein kinase 3 (Homo sapiens) (UniProt Q13188); assay: Inhibition of recombinant human MST2 (2 to end residues) assessed as residual activity at 10 uM using myelin basic protein as substrate measured after 40 mins in presence of [gamma33P]ATP by scintillation counting based radiometry assay relative to control
# [9] = biological target: Aurora kinase B (Homo sapiens) (UniProt Q96GD4); assay: Inhibition of recombinant full length human Aurora B assessed as residual activity at 10 uM using AKRRRLSSLRA as substrate incubated for 40 mins in presence of [gamma-33ATP] by scintillation counting based radiometry assay relative to control
# [10] = biological target: Dual specificity tyrosine-phosphorylation-regulated kinase 1B (Homo sapiens) (UniProt Q9Y463); assay: Inhibition of recombinant human DYRK1B assessed as residual activity at 10 uM using RRRFRPASPLRGPP as substrate at 40 mins in presence of [gamma-33ATP] by scintillation counting based radiometry assay relative to control
# [11] = system: Epidermal growth factor receptor (Homo sapiens), P00533 [L861Q]; assay: Inhibition of recombinant human EGFR L861Q mutant (696 to end residues) assessed as residual activity at 10 uM using poly(Glu, Tyr) 4:1 as substrate at 40 mins in presence of [gamma-33ATP] by scintillation counting based radiometry assay relative to control
# Homo sapiens = species on record: Homo sapiens; assay: Inhibition of recombinant human EphB2 A848S/K918E mutant (560 to end residues) assessed as residual activity at 10 uM using KTFCGTPEYLAPEVRREPRILSEEEQEMFRDFDYIADWC as substrate at 40 mins in presence of [gamma-33ATP] by scintillation counting based radiometry assay relative to control
# [12] = biological target: Serine/threonine-protein kinase PAK 3 (Homo sapiens) (UniProt O75914); assay: Inhibition of recombinant full-length human PAK3 assessed as residual activity at 10 uM using RRRLSFAEPG as substrate measured after 40 mins in presence of [gamma33P]ATP by scintillation counting based radiometry assay relative to control
# [13] = biological target: Serine/threonine-protein kinase VRK1 (Homo sapiens) (UniProt Q99986); assay: Inhibition of recombinant human VRK1 assessed as residual activity at 10 uM in presence of [gamma33P]ATP by scintillation counting based radiometry assay relative to control
# [14] = biological target: Tyrosine-protein kinase TXK (Homo sapiens) (UniProt P42681); assay: Inhibition of recombinant human Txk (256 to end residues) assessed as residual activity at 10 uM using GEEPLYWSFPAKKK as substrate incubated for 40 mins in presence of [gamma33P]ATP by scintillation counting based radiometry assay relative to control
# [15] = biological target: Transcription initiation factor TFIID subunit 1-like (Homo sapiens) (UniProt Q8IZX4); assay: Inhibition of recombinant human TAF1L (1428 to end residues) assessed as residual activity at 10 uM using RRRFRPASPLRGPPK as substrate incubated for 40 mins in presence of [gamma33P]ATP by scintillation counting based radiometry assay relative to control
# [16] = biological target: Proto-oncogene tyrosine-protein kinase Src (Homo sapiens) (UniProt P12931); assay: Inhibition of recombinant human C-Src assessed as residual activity at 10 uM Cdc2 peptide as substrate incubated 40 mins in presence of [gamma-33ATP] by scintillation counting based radiometry assay relative to control
# [17] = system: Platelet-derived growth factor receptor alpha (Homo sapiens), P16234 [V561D]; assay: Inhibition of human PDGFRalpha V561D mutant (550 to end residues) assessed as residual activity at 10 uM using poly(Glu, Tyr) 4:1 as substrate measured after 40 mins in presence of [gamma33P]ATP by scintillation counting based radiometry assay relative to control
# [18] = biological target: Mitogen-activated protein kinase kinase kinase 9 (Homo sapiens) (UniProt P80192); assay: Inhibition of recombinant human MLK1 (134 to 414 residues) assessed as residual activity at 10 uM using casein as substrate incubated for 40 mins in presence of [gamma-33ATP by scintillation counting based radiometry assay relative to control
# [19] = biological target: [Pyruvate dehydrogenase (acetyl-transferring)] kinase isozyme 2, mitochondrial (Homo sapiens) (UniProt Q15119); assay: Inhibition of human PDHK2 assessed as residual activity at 10 uM by scintillation counting based radiometry assay relative to control
# [20] = biological target: Transient receptor potential cation channel subfamily M member 7 (Homo sapiens) (UniProt Q96QT4); assay: Inhibition of recombinant human CHAK1 (1180 to end residues) assessed as residual activity at 10 uM using myelin basic protein as substrate incubated for 40 mins in presence of [gamma-33ATP] by scintillation counting based radiometry assay relative to control
# Chain of Mitogen-activated protein kinase kinase kinase 10 (Homo sapiens) (Q02779 whole entry, looked up, the tested form may be a part): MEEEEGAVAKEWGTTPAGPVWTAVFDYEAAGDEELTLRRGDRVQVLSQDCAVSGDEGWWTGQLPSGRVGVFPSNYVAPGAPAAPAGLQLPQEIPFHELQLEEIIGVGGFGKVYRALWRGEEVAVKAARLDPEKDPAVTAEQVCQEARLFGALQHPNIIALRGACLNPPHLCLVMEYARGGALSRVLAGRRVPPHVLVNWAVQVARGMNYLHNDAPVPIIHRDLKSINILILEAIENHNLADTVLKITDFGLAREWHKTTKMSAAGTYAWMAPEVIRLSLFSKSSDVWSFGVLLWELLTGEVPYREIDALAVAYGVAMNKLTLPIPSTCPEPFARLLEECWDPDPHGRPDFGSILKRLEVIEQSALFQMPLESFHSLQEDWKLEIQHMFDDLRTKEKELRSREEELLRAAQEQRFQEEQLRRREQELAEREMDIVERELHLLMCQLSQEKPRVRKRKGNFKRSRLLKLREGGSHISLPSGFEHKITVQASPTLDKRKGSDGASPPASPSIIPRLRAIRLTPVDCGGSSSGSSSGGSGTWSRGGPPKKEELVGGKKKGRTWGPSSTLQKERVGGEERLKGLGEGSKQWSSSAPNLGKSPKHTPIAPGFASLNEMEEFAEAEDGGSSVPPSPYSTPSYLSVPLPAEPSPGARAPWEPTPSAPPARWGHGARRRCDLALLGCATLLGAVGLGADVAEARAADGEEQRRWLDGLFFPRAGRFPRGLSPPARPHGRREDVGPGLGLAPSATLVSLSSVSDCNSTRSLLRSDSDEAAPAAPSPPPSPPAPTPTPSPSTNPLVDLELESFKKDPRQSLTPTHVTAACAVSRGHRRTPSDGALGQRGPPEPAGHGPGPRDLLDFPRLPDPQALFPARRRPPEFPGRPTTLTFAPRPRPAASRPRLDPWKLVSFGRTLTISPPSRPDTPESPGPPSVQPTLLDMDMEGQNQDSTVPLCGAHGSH
# Chain of Serine/threonine-protein kinase 3 (Homo sapiens) (Q13188 whole entry): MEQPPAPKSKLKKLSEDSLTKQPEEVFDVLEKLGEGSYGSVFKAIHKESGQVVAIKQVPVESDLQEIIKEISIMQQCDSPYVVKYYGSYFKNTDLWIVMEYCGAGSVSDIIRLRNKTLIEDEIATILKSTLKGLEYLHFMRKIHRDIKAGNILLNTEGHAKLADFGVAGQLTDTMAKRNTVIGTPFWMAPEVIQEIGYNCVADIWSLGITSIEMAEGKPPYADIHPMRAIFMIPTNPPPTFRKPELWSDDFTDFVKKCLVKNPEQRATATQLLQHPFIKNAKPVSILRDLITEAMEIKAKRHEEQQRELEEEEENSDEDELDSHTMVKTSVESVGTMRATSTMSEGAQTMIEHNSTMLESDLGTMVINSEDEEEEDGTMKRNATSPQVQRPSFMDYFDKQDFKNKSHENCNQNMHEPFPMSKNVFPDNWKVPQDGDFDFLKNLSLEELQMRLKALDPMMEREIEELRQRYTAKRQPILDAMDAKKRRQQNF
# Chain of Tyrosine-protein kinase HCK (Homo sapiens) (P08631 2-526 limits assumed): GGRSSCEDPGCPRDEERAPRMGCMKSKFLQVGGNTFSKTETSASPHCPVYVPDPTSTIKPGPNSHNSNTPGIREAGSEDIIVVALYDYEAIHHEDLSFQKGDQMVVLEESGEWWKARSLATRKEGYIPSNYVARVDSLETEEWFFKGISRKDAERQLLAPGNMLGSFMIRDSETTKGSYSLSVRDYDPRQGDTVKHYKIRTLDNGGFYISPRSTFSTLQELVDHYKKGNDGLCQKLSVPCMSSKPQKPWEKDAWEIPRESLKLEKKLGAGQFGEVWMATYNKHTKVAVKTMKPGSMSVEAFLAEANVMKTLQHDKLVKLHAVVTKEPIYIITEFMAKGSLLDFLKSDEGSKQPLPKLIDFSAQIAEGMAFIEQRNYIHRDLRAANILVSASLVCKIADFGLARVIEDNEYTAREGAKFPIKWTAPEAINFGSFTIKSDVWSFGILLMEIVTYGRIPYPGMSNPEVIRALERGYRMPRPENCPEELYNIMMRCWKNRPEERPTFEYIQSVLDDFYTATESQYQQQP
# Chain of Serine/threonine-protein kinase PAK 4 (Homo sapiens) (O96013 whole entry, looked up, the tested form may be a part): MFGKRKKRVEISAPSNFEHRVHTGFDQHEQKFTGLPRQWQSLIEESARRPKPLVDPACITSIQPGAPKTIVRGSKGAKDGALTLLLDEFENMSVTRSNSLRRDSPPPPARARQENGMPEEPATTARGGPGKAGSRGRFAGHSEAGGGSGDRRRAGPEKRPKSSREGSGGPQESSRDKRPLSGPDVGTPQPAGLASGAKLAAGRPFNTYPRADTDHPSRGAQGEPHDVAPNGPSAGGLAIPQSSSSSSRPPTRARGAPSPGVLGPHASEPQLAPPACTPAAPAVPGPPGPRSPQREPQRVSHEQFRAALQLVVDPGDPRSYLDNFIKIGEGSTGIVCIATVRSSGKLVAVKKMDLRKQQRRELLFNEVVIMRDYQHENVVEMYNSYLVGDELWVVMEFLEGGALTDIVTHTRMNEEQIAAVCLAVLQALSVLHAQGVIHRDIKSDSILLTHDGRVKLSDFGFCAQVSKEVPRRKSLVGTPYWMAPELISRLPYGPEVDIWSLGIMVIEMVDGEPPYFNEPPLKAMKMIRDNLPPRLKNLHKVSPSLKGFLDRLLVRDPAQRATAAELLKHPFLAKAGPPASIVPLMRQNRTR
# Chain of Tyrosine-protein kinase TXK (Homo sapiens) (P42681 whole entry): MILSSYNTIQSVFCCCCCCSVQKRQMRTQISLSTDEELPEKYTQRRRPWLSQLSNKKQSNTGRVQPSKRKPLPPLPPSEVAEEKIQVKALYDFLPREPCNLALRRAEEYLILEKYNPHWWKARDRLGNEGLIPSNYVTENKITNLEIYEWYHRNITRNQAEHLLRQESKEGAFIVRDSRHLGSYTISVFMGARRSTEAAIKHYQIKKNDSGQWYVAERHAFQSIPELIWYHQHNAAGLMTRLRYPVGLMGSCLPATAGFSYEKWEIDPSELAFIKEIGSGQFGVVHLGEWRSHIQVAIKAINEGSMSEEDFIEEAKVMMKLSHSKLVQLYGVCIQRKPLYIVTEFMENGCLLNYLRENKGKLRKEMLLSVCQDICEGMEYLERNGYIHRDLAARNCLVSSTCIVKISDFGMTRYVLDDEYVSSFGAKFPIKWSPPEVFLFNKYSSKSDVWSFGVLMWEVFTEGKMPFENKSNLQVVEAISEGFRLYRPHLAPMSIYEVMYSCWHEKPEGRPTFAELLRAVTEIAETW
# Chain of Dual specificity tyrosine-phosphorylation-regulated kinase 1B (Homo sapiens) (Q9Y463 whole entry, looked up): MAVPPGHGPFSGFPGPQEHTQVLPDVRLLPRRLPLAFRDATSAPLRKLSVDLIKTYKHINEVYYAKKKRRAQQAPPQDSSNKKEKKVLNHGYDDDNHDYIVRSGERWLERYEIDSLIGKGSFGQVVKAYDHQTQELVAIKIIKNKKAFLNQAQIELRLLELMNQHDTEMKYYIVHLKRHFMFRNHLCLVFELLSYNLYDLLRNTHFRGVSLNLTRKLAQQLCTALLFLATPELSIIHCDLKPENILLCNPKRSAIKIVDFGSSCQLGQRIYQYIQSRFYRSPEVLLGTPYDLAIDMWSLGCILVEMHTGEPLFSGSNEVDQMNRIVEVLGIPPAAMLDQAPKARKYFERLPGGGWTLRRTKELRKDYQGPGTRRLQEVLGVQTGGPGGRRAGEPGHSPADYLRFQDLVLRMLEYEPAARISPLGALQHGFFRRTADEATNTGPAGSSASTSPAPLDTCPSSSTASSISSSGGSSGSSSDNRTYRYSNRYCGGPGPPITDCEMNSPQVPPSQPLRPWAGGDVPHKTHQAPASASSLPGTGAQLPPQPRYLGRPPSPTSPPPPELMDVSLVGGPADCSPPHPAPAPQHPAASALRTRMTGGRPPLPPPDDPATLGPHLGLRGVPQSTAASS
# Chain of Angiopoietin-1 receptor (Homo sapiens), Q02763 [Q939H,Q940H,Y897S] (Q02763 whole entry Y897S/Q939H/Q940H): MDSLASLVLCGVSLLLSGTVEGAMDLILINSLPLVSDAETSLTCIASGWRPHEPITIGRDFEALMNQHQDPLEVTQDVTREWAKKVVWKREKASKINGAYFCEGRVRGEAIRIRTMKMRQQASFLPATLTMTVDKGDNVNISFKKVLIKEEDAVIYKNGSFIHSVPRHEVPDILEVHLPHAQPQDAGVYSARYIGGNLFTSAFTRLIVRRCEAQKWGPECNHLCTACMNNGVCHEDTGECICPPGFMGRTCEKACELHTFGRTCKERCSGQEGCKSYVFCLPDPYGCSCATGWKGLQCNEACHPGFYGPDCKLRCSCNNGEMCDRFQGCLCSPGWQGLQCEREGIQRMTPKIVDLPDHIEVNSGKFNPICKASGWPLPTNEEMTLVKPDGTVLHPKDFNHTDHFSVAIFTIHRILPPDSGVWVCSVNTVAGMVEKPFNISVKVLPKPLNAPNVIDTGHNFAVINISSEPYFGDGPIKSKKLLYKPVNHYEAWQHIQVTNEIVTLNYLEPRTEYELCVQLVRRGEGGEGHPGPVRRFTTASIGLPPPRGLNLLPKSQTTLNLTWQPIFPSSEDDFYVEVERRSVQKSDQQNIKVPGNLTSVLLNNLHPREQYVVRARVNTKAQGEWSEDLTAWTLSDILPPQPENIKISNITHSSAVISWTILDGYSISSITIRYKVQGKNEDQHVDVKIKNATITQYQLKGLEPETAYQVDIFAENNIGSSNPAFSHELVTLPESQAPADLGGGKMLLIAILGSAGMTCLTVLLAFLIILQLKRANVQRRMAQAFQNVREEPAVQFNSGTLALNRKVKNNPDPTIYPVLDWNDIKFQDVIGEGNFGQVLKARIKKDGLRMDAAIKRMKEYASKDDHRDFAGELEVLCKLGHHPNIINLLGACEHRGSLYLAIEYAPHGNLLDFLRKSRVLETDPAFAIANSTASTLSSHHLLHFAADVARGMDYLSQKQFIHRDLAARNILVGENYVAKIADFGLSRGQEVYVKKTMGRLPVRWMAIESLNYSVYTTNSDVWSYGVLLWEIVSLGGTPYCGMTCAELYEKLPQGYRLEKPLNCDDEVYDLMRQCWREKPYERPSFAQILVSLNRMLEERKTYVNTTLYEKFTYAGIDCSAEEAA
structure (smiles),measurement,setting,value
C[C@@H](c1ccccc1)n1nnc2cnc3ccc(-c4cnc5[nH]ccc5c4)cc3c21,Activity,[1],81%
same,Activity,[2],81%
same,Activity,[3],69%
same,Activity,[4],79%
same,Activity,[5],3%
same,Activity,[6],88%
same,Activity,[7],9%
same,Activity,[8],57%
same,Activity,[9],34%
same,Activity,[10],83%
same,Activity,[11],70%
same,Activity,Homo sapiens,83%
same,Activity,[12],136%
same,Activity,[13],96%
same,Activity,[14],23%
same,Activity,[15],85%
same,Activity,[16],27%
same,Activity,[17],2%
same,Activity,[18],41%
same,Activity,[19],86%
same,Activity,[20],66%
